# Reference: article PMC2649788 (Drug metabolism and disposition: the biological fate of …, 2008)
# Positions count from the first letter of the chain named. Values joined by “and” are separate entries in the source; they are usually repeats but may differ in a detail not shown here. Equal entries are not always repeated.
# Tests used:
# K262R [1] = assay type: biochemical, human; details: type II inhibitors; Supporting table 1
# CYP2B6dH [2] = target: T1, CYP2B6dH (Homo sapiens, UniProt P20813)
# T1 sequence (P20813 with tags, fused parts or gaps limits assumed): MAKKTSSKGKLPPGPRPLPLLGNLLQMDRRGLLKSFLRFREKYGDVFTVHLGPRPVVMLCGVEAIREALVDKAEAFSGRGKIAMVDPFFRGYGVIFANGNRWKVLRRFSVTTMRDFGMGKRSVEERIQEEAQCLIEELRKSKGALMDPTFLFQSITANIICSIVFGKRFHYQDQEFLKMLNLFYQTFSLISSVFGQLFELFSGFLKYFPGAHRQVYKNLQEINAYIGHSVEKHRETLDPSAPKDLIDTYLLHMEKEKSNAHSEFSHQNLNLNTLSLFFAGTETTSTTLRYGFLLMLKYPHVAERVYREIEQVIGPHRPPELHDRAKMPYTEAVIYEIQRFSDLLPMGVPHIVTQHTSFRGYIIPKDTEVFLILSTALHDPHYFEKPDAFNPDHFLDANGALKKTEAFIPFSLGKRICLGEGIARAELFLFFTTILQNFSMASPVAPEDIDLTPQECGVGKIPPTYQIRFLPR
# Q172H/K262R (2B6*6) [3] = target: T2, Q172H/K262R (2B6*6) (Homo sapiens, UniProt P20813, K262R/Q172H)
# T2 sequence (P20813 with tags, fused parts or gaps Q172H/K262R limits assumed): T1 sequence (P20813 with tags, fused parts or gaps limits assumed) with Q153H, K243R
# CYP2B6dH [4] = target: T1, CYP2B6dH; test: 7-MFC O-deethylation inhibition in standard reconstitution system; details: pH 7.4
# CYP2B6 K262R (2B6*4) = target: T3, CYP2B6 K262R (2B6*4) (Homo sapiens, UniProt P20813, K262R); test: as above; details: human, pH 7.4
# T3 sequence (P20813 with tags, fused parts or gaps K262R limits assumed): T1 sequence (P20813 with tags, fused parts or gaps limits assumed) with K243R
# K262R (2B6*4) [5] = target: T4, K262R (2B6*4) (Homo sapiens, UniProt P20813, K262R); test: as above; details: for Increase in Ki, K262R compared with CYP2B6dH: 7-MFC O-deethylation
# T4 sequence (P20813 with tags, fused parts or gaps K262R limits assumed): T1 sequence (P20813 with tags, fused parts or gaps limits assumed) with K243R
# [6] = target: T5, CYP2B6 Q172H/K262R (2B6*6) (Homo sapiens, UniProt P20813, K262R/Q172H); test: as above; details: human, pH 7.4
# T5 sequence (P20813 with tags, fused parts or gaps Q172H/K262R limits assumed): T1 sequence (P20813 with tags, fused parts or gaps limits assumed) with Q153H, K243R
# Q172H/K262R (2B6*6) [7] = target: T2, Q172H/K262R (2B6*6); test: as above; details: for Increase in Ki, Q172H/K262R compared with CYP2B6dH: 7-MFC O-deethylation; for Ki: Ki (Q172H/K262R), 7-MFC 25, 50, 100, 150 μM, global fit, duplicate
# K262R [8] = details: in contrast to CYP2B6dH, ref Bumpus et al., 2005, 2006; cited from earlier work
# K262R [9] = tested on: K262R; parameters: species or system human
# [10] = read-out: Estimated in vivo Cmax; plasma, normal population; used as [I]; ref www.mentalhealth.com, www.medscape.com, www.pharmgkb.org, Burgess and Bodey, 1972, Goodwin and Drew, 2007; cited from earlier work
# CYP2B6dH [11] = target: T1, CYP2B6dH; test: Spectral binding; details: for Type of difference spectrum induced: CYP2B6dH and K262R, peak ~388 nm, trough ~420 nm; for ΔAmax (CYP2B6dH): difference spectra, 1 μM P450
# K262R (2B6*4) [12] = target: T4, K262R (2B6*4); test: Spectral binding; details: for ΔAmax (K262R): difference spectra, 1 μM P450; for ΔAmax, K262R compared with wild-type / Higher Ks, K262R compared with CYP2B6dH: spectral binding
# CYP2B6dH [13] = target: T1, CYP2B6dH; details: for Predicted in vivo % activity (CYP2B6dH): remaining efavirenz metabolism relative to no inhibitor; for Predicted inhibition of efavirenz metabolism (CYP2B6dH): in vivo prediction
# 2B6*1/*4 genotype = details: individuals with 2B6*1/*4 genotype, single dose; ref Kirchheiner at al., 2003; cited from earlier work
# K262R [14] = details: bupropion to hydroxybupropion; ref Bumpus et al., 2005; cited from earlier work
# CYP2B6dH [15] = target: T1, CYP2B6dH; details: ref Bumpus et al., 2006, cited from earlier work
# K262R [16] = details: ref Bumpus et al., 2006, cited from earlier work
# *1/*4 heterozygotes = details: ref Rotger et al., 2007; cited from earlier work
compound,measurement,setting,value
c1ccc(-c2ccc(Cn3ccnc3)cc2)cc1 [1-(4-phenyl)benzylimidazole],"Lower IC50, K262R compared with CYP2B6dH",K262R [1],~ 2 fold and 2 fold
O=[N+]([O-])c1ccc(Cc2ccncc2)cc1 [4-(4-nitrobenzyl)pyridine],"Lower IC50, K262R compared with CYP2B6dH",K262R [1],~ 2 fold and 2 fold
c1ccc(-c2ccncc2)cc1 [4-(phenyl)pyridine],"Lower IC50, K262R compared with CYP2B6dH",K262R [1],10 fold
"COc1ccc2c(C(F)(F)F)cc(=O)oc2c1 [7-MFC, 7-Methoxy-4-(trifluoromethyl) coumarin]",kcat for 7-MFC oxidation (CYP2B6dH),CYP2B6dH [2],0.0633 s⁻¹
same,"Km higher, Q172H/K262R vs CYP2B6dH or K262R",Q172H/K262R (2B6*6) [3],~ 10 fold
same,"kcat lower, Q172H/K262R vs CYP2B6dH or K262R",Q172H/K262R (2B6*6) [3],> 2 fold
same,Km at 5 min,CYP2B6dH [4],5.1 µM
same,Km at 5 min,CYP2B6 K262R (2B6*4),5 µM
same,kcat for 7-MFC oxidation (K262R),K262R (2B6*4) [5],0.0817 s⁻¹
same,Km at 5 min,[6],49 µM
same,kcat for 7-MFC oxidation (Q172H/K262R),Q172H/K262R (2B6*6) [7],0.0217 s⁻¹
O=C1Nc2c(O)cc(Cl)cc2[C@@](C#CC2CC2)(C(F)(F)F)O1 [8-hydroxyefavirenz],Susceptibility of K262R to mechanism-based inactivation,K262R [8],preserved
C#C[C@]1(O)CC[C@H]2[C@@H]3CCc4cc(O)ccc4[C@H]3CC[C@@]21C [17α-ethynylestradiol],Susceptibility of K262R to mechanism-based inactivation,K262R [8],refractory
"COC(=O)[C@H](c1ccccc1Cl)N1CCc2sccc2C1 [Clopidogrel, clopidogrel]",Predicted in vivo activity (K262R),K262R [9],0.27 (7.6) min^−1
same,Cmax,[10],9300 nM
same,Kd,CYP2B6dH [11],160 ± 110 nM
same,Type of difference spectrum induced,CYP2B6dH [11],type I
same,ΔAmax (CYP2B6dH),CYP2B6dH [11],0.026 ± 0.002
same,Kd,K262R (2B6*4) [12],330 ± 140 nM
same,ΔAmax (K262R),K262R (2B6*4) [12],0.030 ± 0.002
same,"ΔAmax, K262R compared with wild-type",K262R (2B6*4) [12],similar
same,"Increase in Ki, K262R compared with CYP2B6dH",K262R (2B6*4) [5],4 fold
same,"Increase in Ki, K262R compared with CYP2B6dH",K262R (2B6*4) [5]; listed as clopidogrel,> 3 fold
same,"Increase in Ki, Q172H/K262R compared with CYP2B6dH",Q172H/K262R (2B6*6) [7]; listed as clopidogrel,> 6 fold and 6 fold
same,Ki,Q172H/K262R (2B6*6) [7],600 nM and 590 nM and 630 nM
"Clc1ccccc1C(c1ccccc1)(c1ccccc1)n1ccnc1 [Clotrimazole, clotrimazole]",Predicted in vivo % activity (CYP2B6dH),CYP2B6dH [13],6%
same,Cmax,[10],3700 nM
same,"Increase in Ki, K262R compared with CYP2B6dH",K262R (2B6*4) [5],similar
"CCC(C)n1ncn(-c2ccc(N3CCN(c4ccc(OCC5COC(Cn6cncn6)(c6ccc(Cl)cc6Cl)O5)cc4)CC3)cc2)c1=O (stereo not drawn) [Itraconazole, itraconazole]",Predicted inhibition of efavirenz metabolism (K262R),K262R [9]; in vivo prediction,20%
same,Predicted inhibition of efavirenz metabolism (CYP2B6dH),CYP2B6dH [13],43%
same,Cmax,[10],1900 nM
same,Kd,CYP2B6dH [11],70 ± 130 nM
same,Type of difference spectrum induced,CYP2B6dH [11],type I
same,ΔAmax (CYP2B6dH),CYP2B6dH [11],0.022 ± 0.003
same,Kd,K262R (2B6*4) [12],1730 ± 440 nM
same,ΔAmax (K262R),K262R (2B6*4) [12],0.021 ± 0.002
same,"Higher Ks, K262R compared with CYP2B6dH",K262R (2B6*4) [12],> 20 fold and ~20 fold
same,"ΔAmax, K262R compared with wild-type",K262R (2B6*4) [12],similar
same,"Increase in Ki, K262R compared with CYP2B6dH",K262R (2B6*4) [5],> 3 fold
"S=P(N1CC1)(N1CC1)N1CC1 [N,N′,N″-triethylenethiophosphoramide]",Susceptibility of K262R to mechanism-based inactivation,K262R [8],preserved
"O=C(c1ccc(OCCN2CCCCC2)cc1)c1c(-c2ccc(O)cc2)sc2cc(O)ccc12 [Raloxifene, raloxifene]",Predicted in vivo % activity (CYP2B6dH),CYP2B6dH [13],would not alter
same,Cmax,[10],3 nM
"CN[C@H]1CC[C@@H](c2ccc(Cl)c(Cl)c2)c2ccccc21 [Sertraline, sertraline]",Predicted inhibition of efavirenz metabolism (CYP2B6dH),CYP2B6dH [13],52%
same,Cmax,[10],620 nM
same,Kd,CYP2B6dH [11],510 ± 160 nM
same,Type of difference spectrum induced,CYP2B6dH [11],type I
same,ΔAmax (CYP2B6dH),CYP2B6dH [11],0.008 ± 0.0005
same,Kd,K262R (2B6*4) [12],2060 ± 610 nM
same,ΔAmax (K262R),K262R (2B6*4) [12],0.02 ± 0.002
same,"Higher Ks, K262R compared with CYP2B6dH",K262R (2B6*4) [12],4 fold
same,"ΔAmax, K262R compared with wild-type",K262R (2B6*4) [12],3 fold
same,"Increase in Ki, K262R compared with CYP2B6dH",K262R (2B6*4) [5],~ 6 fold and 6 fold
same,"Increase in Ki, Q172H/K262R compared with CYP2B6dH",Q172H/K262R (2B6*6) [7],> 6 fold and > 7 fold
same,Ki,Q172H/K262R (2B6*6) [7],2200 nM and 2160 nM
"Clc1ccccc1CN1CCc2sccc2C1 [Ticlopidine, ticlopidine]",Predicted in vivo activity (K262R),K262R [9],0.47 (13) min^−1
same,Cmax,[10],1600 nM
same,Type of difference spectrum induced,CYP2B6dH [11],type I
same,ΔAmax (CYP2B6dH),CYP2B6dH [11],0.023 ± 0.001
same,ΔAmax (K262R),K262R (2B6*4) [12],0.025 ± 0.001
same,"Higher Ks, K262R compared with CYP2B6dH",K262R (2B6*4) [12],No significant changes
same,"ΔAmax, K262R compared with wild-type",K262R (2B6*4) [12],similar
same,"Increase in Ki, K262R compared with CYP2B6dH",K262R (2B6*4) [5],similar
CC(C)=CCC/C(C)=C/COc1c2ccoc2cc2oc(=O)ccc12 [bergamottin],Susceptibility of K262R to mechanism-based inactivation,K262R [8],preserved
CC(NC(C)(C)C)C(=O)c1cccc(Cl)c1 (stereo not drawn) [bupropion],Increased clearance,2B6*1/*4 genotype,1.3 fold
same,"Increased kcat, K262R compared with CYP2B6dH",K262R [14],> 2 fold
O=C1Nc2ccc(Cl)cc2[C@@](C#CC2CC2)(C(F)(F)F)O1 [efavirenz],Km,CYP2B6dH [15]; read-out: Km for efavirenz hydroxylation (CYP2B6dH),14.3 µM
same,kcat for efavirenz hydroxylation (CYP2B6dH),CYP2B6dH [15],0.0717 s⁻¹
same,"Increased catalytic efficiency, K262R compared with CYP2B6dH",K262R [16]; efavirenz to 8-hydroxyefavirenz,~ 2 fold
same,Km,K262R [16]; read-out: Km for efavirenz hydroxylation (K262R),15.9 µM
same,kcat for efavirenz hydroxylation (K262R),K262R [16],0.132 s⁻¹
same,Reduced area under plasma concentration (AUC),*1/*4 heterozygotes,17%
same,Susceptibility of K262R to mechanism-based inactivation,K262R [8],refractory
